Literature values, collected in patent US9259452B2, “Deacetylase inhibitor therapy” (Celgene Corporation, priority 2006, dated 2016).
Read-outs that look alike come from different tables or passages of the source.

Conditions: cited from earlier work; for ECG effects reported: clinical trials

## O=C(/C=C/c1ccc(CN(CCO)CCc2cc3ccccc3[nH]2)cc1)NO [LAQ824]
77 patients treated
  Change in QTc interval: statistically significant increase
  ECG effects reported: non-specific T-wave or ST segment abnormalities
Of 77 patients treated
  Patients having QTc prolongation of greater than 60 ms: 10%
When re-treated at a lower dose level
  Event in one patient with QTc greater than 500 ms: torsades de pointes

## O=C(CCCCCCC(=O)Nc1ccccc1)NO [SAHA, Suberoylanilide Hydroxamic Acid]
  ECG effects reported: non-specific T-wave or ST segment abnormalities

## Cc1[nH]c2ccccc2c1CCNCc1ccc(/C=C/C(=O)NO)cc1 [LBH589]
12 patients treated at higher dose levels
  Patients with QTc prolongation of greater than 500 ms: 42%
Of 12 patients treated at higher dose levels
  Patients with QTc prolongation of greater than 500 ms: 5

## O=C(/C=C/c1cccc(S(=O)(=O)Nc2ccccc2)c1)NO [PXD101]
Phase I trials
  Supraventricular tachycardia reported: dose limiting toxicity
